Entries after “also recorded” stand apart in the source; their conditions may differ. Where a SMILES comes first, the peptide text is derived from it. [ ]: non-standard residue; d: D form. Lys(Me3) = C[N+](C)(C)CCCC[C@H](N)C(=O)O
Key:
PRC2-WT (EED/EZH2/SUZ12) [1] = target: T1, PRC2-WT (EED/EZH2/SUZ12) (Homo sapiens, UniProt O75530+Q15910); assay: Methyltransferase scintillation proximity assay, H3 (21-44) peptide substrate; assay type: biochemical; details: for effect on catalytic activity of PRC2-WT: H3 peptide substrate, compound up to 100 µM, normalized to activity without compound; for kcat, H3(21–44), PRC2-WT: in the presence of 20 µM compound, peptide substrate, mean ± SD, n = 3
T1 construct: the full lengths of two components of the PRC2 complex, EED(1–441) and EZH2(1–751); EED(1–441) and EZH2(1–751) were cloned into pFastBac-Dual; made in house; host or cells: Sf9 insect cells (baculovirus co-infection)
Protocol: (§1) Methyltransferase activity assay for WT PRC2 (EED/EZH2/SUZ12) or mutant PRC2-EED-I363M (EED/EZH2/SUZ12) was performed by monitoring the incorporation of tritium-labeled methyl group to lysine 27 of H3 (21–44) peptide using Scintillation Proximity Assay (SPA) or to human nucleosome using a filter-based assay. The enzymatic reactions were performed at 23 °C with 1 hour incubation of 10 µl reaction mixture in 20 mM Tris-HCl, pH 8, 5 mM DTT, and 0.01% Triton X-100 containing 2 µM of ^3H-SAM (Cat.# NET155V250UC; Perkin Elmer; www.perkinelmer.com), 1 µM of biotinylated H3 (21–44), 20 nM PRC2-WT or PRC2-mutant. To stop the reactions, 10 µL of 7.5 M Guanidine hydrochloride was added, followed by 200 µl of buffer (20 mM Tris, pH 8.0), mixed and transferred to a 96-well Streptavidin coated Flash-plate (Cat. # SMP410A001PK, PerkinElmer, http://www.perkinelmer.ca). After mixing, the mixtures in Flash-plate were incubated for 2 hours and the CPM counts were measured using Topcount plate reader (Perkin Elmer, www.perkinelmer.com).
(§2) The CPM counts in the absence of compound for each dataset were defined as 100% activity. In the absence of the enzyme, the CPM counts in each data set were defined as background (0%). All enzymatic reactions were performed in triplicate and the data were analyzed by GraphPad Prism 7 software.
(§3) Supplementary Figure S5. Testing the effect of 9 compounds on activity of WT- and EED-I363M mutant PRC2 complexes. Activities of WT- and mutant-PRC2 in the presence of each compound are normalized to activity of each protein complex in the absence of compound as 100%.
Experiments were performed using 20 nM of each WT or mutant PRC2 trimeric (EED/EZH2/SUZ12) complexes, 2 µM 3H-SAM, 1 µM biotin-H3 (21-44), and up to 100 µM of compounds, 20 mM Tris-HCl pH 8.0, 5 mM DTT and 0.01% Triton X-100. […]
(§4) Supplementary Figure S7. Determination of kcat values for WT- and EED- I363M mutant trimeric PRC2 complexes in the presence of activators. The kcat values were determined using (A) H3 (21-44) in the presence of 20 µM of each compound or (B) human nucleosome as a substrate in the presence of 200 µM of each compound. Experiments were […]
(§5) performed in triplicate under the following assay conditions:
(§6) (A) Peptide as substrate: 20 nM wildtype or EED-I363M mutant PRC2 (EED/EZH2/SUZ12), 2 µM biotinylated-H3 (21-44) peptide, various concentrations of 3H-SAM (up to 5 µM). […]
(§7) Reactions with both substrates were incubated for 30 min at 23°C in 20 mM Tris-HCl pH 8.0, 5

[2] = target: T2, PRC2-EED-I363M (EED/EZH2/SUZ12) (Homo sapiens, UniProt O75530+Q15910, I363M); assay: as above; assay type: biochemical; details: for EC50: 20 nM enzyme, 5 µM 3H-SAM, 2 µM biotin-H3 (21-44), 30 min, 23 °C, read-out: EC50 for activation of PRC2-EED-I363M; for EC50 / effect on catalytic activity of PRC2-EED-I363M: compound up to 100 µM; for increase of PRC2-EED-I363M kcat values: 20 µM compound, peptide as substrate; for effect on catalytic activity of PRC2-EED-I363M: H3 peptide substrate, normalized to activity without compound; for kcat, H3(21–44), PRC2-EED-I363M: in the presence of 20 µM compound, peptide substrate, mean ± SD, n = 3
T2 construct: the full lengths of two components of the PRC2 complex, EED(1–441) and EZH2(1–751); EED(1–441) and EZH2(1–751) were cloned into pFastBac-Dual; made in house; host or cells: Sf9 insect cells (baculovirus co-infection)
Protocol: as §1, §2, §3
Experiments were performed using 20 nM of each WT or mutant PRC2 trimeric (EED/EZH2/SUZ12) complexes, 2 µM 3H-SAM, 1 µM biotin-H3 (21-44), and up to 100 µM of compounds, 20 mM Tris-HCl pH 8.0, 5 mM DTT and 0.01% Triton X-100.
Supplementary Figure S6. EC50 determination for activators. The EC50 values were determined […]
PRC2 mutant (EED/EZH2/SUZ12), 5 µM 3H-SAM, 2 µM biotin-H3 (21-44) and compound concentrations up to 100 µM. Reactions were incubated for 30 min at 23°C in 20 mM Tris-HCl pH 8.0, 5 mM DTT, 0.01% Triton X-100). Experiments were performed in triplicate. Data shown […]
as §4, §5, §6, §7

[3] = target: T2, PRC2-EED-I363M (EED/EZH2/SUZ12); assay: Filter-based methyltransferase assay, human nucleosome substrate; assay type: biochemical; details: for increase of PRC2-EED-I363M kcat values: human nucleosomes as substrate; for kcat, Human nucleosome, PRC2-EED-I363M: in the presence of 200 µM compound, nucleosome substrate, mean ± SD, n = 3
Protocol: (§8) Figure 3 Effect of compound 1, 2 and 4 on activity of PRC2-WT and PRC2-EED-I363M. Effect of the selected compounds on activity of PRC2-WT and PRC2-EED-I363M mutant were assessed using human nucleosome as a substrate. Experiments were performed in triplicate using 200 nM of enzyme, 2 µM 3H-SAM and 5 µM human nucleosome and 200 µM compounds incubated for 30 min at 23 °C in 20 mM Tris-HCl pH 8.0, 5 mM DTT, 0.01% Triton X-100.
(§9) A filter-based assay was used for human nucleosome as a substrate. The reactions were carried out at 23 °C with 0.5 hour incubation of 10 µl reaction mixture in 20 mM Tris-HCl, pH 8, 5 mM DTT, and 0.01% Triton X-100 containing 2 µM of ^3H-SAM (Cat.# NET155V250UC; Perkin Elmer; www.perkinelmer.com), 5 µM of human nucleosome, 200 nM PRC2-WT or PRC2 mutant. To stop the reactions, 50 µl of 10% TCA was added, mixed and transferred to filter-plates (Millipore; Cat.# MSFBN6B10; www.millipore.com). Plates were centrifuged at 2000 rpm (Allegra X-15R - Beckman Coulter, Inc.) for 2 min followed by two additional 10% TCA wash and one ethanol wash (180 µl) followed by centrifugation. Plates were dried and 100 µl MicroO (MicroScint-O; Cat.# 6013611, Perkin Elmer; www.perkinelmer.com) was added to each well, centrifuged and removed. 70 µl of MicroO was added again and CPM was measured using Topcount plate reader.
as §2, §4
(§10) performed in triplicate under the following assay conditions: […]
(§11) (B) Human nucleosome as a substrate: 200 nM wildtype or EED-I363M mutant trimeric PRC2 (EED/EZH2/SUZ12), various concentrations of 3H-SAM (up to 5 µM) and 5 µM human […]
as §7

PRC2-WT (EED/EZH2/SUZ12) [4] = target: T1, PRC2-WT (EED/EZH2/SUZ12); assay: as above; assay type: biochemical; details: for kcat, Human nucleosome, PRC2-WT: in the presence of 200 µM compound, nucleosome substrate, mean ± SD, n = 3
Protocol: as §8, §9, §2, §4, §10, §11, §7

wildtype EED = details: cited from earlier work

T1 sequence (O75530 whole entry): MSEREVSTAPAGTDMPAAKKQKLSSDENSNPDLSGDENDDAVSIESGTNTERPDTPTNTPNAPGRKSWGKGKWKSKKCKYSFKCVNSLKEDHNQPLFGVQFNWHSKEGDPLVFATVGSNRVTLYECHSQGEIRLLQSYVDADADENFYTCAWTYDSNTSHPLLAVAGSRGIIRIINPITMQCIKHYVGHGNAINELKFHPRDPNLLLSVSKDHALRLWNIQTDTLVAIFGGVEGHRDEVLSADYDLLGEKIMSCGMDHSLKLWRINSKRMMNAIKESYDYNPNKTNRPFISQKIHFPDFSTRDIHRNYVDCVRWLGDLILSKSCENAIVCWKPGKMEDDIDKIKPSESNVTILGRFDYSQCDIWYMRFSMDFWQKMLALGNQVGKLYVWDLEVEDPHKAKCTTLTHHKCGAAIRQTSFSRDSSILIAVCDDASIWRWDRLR
T1 sequence (Q15910 1-751 isoform Q15910-2): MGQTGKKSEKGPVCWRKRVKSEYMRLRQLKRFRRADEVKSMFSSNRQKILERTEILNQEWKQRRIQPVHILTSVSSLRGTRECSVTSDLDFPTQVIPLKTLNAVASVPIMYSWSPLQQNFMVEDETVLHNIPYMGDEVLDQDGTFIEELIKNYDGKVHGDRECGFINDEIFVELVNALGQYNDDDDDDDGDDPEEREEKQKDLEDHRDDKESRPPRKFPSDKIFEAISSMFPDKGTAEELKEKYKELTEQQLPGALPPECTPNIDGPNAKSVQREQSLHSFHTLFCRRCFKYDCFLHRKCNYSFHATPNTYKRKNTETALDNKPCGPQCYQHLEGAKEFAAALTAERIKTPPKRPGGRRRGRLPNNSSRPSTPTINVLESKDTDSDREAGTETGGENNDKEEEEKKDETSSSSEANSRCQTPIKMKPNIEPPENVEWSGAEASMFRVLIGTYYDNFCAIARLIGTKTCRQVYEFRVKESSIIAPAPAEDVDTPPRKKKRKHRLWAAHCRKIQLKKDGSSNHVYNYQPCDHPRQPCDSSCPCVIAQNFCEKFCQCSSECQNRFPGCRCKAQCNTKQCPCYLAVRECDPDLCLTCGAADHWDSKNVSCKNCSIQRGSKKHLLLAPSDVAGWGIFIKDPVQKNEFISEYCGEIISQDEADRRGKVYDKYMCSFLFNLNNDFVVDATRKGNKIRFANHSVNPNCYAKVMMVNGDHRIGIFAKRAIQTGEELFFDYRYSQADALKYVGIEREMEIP
T1 sequence (Q15022 whole entry partner): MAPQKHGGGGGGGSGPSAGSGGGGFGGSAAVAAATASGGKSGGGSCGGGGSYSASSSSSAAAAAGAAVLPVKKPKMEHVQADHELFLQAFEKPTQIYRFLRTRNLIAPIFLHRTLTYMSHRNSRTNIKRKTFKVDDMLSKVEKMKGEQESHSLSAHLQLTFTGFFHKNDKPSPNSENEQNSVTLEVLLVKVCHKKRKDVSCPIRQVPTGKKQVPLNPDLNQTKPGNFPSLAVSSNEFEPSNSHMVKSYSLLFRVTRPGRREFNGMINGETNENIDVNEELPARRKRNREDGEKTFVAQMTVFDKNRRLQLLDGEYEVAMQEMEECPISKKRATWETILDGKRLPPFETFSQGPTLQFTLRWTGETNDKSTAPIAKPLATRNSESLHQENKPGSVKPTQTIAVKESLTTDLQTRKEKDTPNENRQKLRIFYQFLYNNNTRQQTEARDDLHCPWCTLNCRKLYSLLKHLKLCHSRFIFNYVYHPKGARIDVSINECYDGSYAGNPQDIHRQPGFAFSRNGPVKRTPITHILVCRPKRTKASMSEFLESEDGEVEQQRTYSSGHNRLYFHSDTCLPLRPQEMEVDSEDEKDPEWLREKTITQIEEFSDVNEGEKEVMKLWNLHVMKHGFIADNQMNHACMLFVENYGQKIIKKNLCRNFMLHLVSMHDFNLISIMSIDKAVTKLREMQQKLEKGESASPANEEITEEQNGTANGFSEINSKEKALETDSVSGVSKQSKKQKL
T2 sequence (O75530 whole entry I363M): as the sequence (O75530 whole entry) above, with I363M counted along it
T2 sequence (Q15910 1-751 isoform Q15910-2, stated change not applied): as the sequence (Q15910 1-751 isoform Q15910-2) above
T2 sequence (Q15022 whole entry partner): as the sequence (Q15022 whole entry partner) above

| Compound | effect on catalytic activity of PRC2-WT (PRC2-WT (EED/EZH2/SUZ12) [1]) | kcat, H3(21–44), PRC2-WT (PRC2-WT (EED/EZH2/SUZ12) [1]) | EC50 [2] | increase of PRC2-EED-I363M kcat values [2] | effect on catalytic activity of PRC2-EED-I363M [2] | kcat, H3(21–44), PRC2-EED-I363M [2] | increase of PRC2-EED-I363M kcat values [3] | kcat, Human nucleosome, PRC2-EED-I363M [3] | kcat, Human nucleosome, PRC2-WT (PRC2-WT (EED/EZH2/SUZ12) [4]) | effect on PRC2-WT catalytic activity (PRC2-WT (EED/EZH2/SUZ12) [4]; human nucleosome as substrate) | Kd (wildtype EED) |
| --- | --- | --- | --- | --- | --- | --- | --- | --- | --- | --- | --- |
| CC(C)C[C@H](NC(=O)[C@H](Cc1ccccc1)NC(=O)[C@H](CCCC[N+](C)(C)C)NC(=O)[C@H](CCCNC(=N)N)NC(=O)[C@@H]1CCCN1)C(N)=O [compound 1] (H-PR[Lys(Me3)]FL-NH2) | minimal effects | 0.00694 ± 0.00014 s⁻¹ | 2300 ± 400 nM | more than 2 fold | significant increase | 0.00556 ± 0.00028 s⁻¹ | about 2 fold | 0.000361 ± 2.8e-06 s⁻¹ | 0.000472 ± 1.4e-05 s⁻¹ |  |  |
| CC(C)C[C@H](NC(=O)[C@H](Cc1ccccc1)NC(=O)[C@H](CCCC[N+](C)(C)C)NC(=O)[C@H](CCCCN)NC(=O)[C@@H]1CCCN1)C(N)=O [compound 2] (H-PK[Lys(Me3)]FL-NH2) | minimal effects | 0.00667 ± 0.00014 s⁻¹ | 2400 ± 400 nM | more than 2 fold | significant increase | 0.00583 ± 0.00028 s⁻¹ | about 2 fold | 0.000417 ± 5.6e-06 s⁻¹ | 0.000444 ± 1.1e-05 s⁻¹ | weak inhibitor |  |
| CC(C)CC(NC(=O)C(Cc1ccccc1)NC(=O)C(CCCC[N+](C)(C)C)NC(=O)C1CC2CCCCC2N1CCCCN)C(N)=O (stereo not drawn) [compound 3] | highest inhibition; also recorded: dose-dependent inhibitory potency |  |  |  | does not show any activator effect |  |  |  |  |  |  |
| CC(C)C[C@H](NC(=O)[C@H](Cc1ccccc1)NC(=O)[C@H](CCCCN(C)C(C)C)NC(=O)[C@@H]1C[C@@H]2CCCC[C@@H]2N1)C(N)=O [UNC5114, reference compound] | antagonized |  |  |  | minimal effects |  |  |  |  |  | 700 to 1100 nM |

Source: publication PMC6484020, “Discovery of selective activators of PRC2 mutant EED-I363M” (Scientific Reports, 2019)
